Data from patent publication US8487006B2, “Method of enhancing TGF-β signalling” (Auxagen, Inc., priority 2008, dated 2013).

Experiments:
[1] = system: TβR-I and SARA at the plasma membrane in Mv1Lu cells; test: Co-localization and accumulation of TβR-I and SARA, immunofluorescent microscopy; assay type: cell-based; conditions: 20 μM TFP, 10 mg/ml β-CD, 40 μM dynasore, 200 μM chloroquine, with 100 pM TGF-β1, 30 min
Description: Cells were pretreated with vehicle only or 20 μM TFP, 10 mg/ml β-CD, 40 μM dynasore (Dyn) and 200 μM chloroquine (CQ) at 37° C. for 1 h. Treated cells were then stimulated with and without 100 pM TGF-β1. After 30 min at 37° C., cells were fixed and analyzed by indirect immunofluorescent staining using antibody to TβR-I (panels 1-10) and SARA (panels 11-20), DAPI (nuclear) staining was also performed (panels 21-30). Merged staining is also shown (panels 31-40). Insets indicate the co-localization and accumulation of SARA and TβR-I at the plasma membrane.
TGF-β stimulates Smad2 phosphorylation by inducing association of TβR-I and SARA^6,7 (which serves as an anchor for Smad2), binding of Smad2 to SARA, and subsequent phosphorylation of Smad2 by TβR-I in the TβR-1-SARA-Smad2 complex. If clathrin-dependent endocytosis inhibitors enhance TGF-β-induced signaling (TGF-β-stimulated Smad2 phosphorylation) by increasing accumulation of TβR-I/TβR-II complexes at the coated pits, they should promote co-localization and accumulation of TβR-I and SARA at the plasma membrane. To test this, Mv1Lu cells were stimulated with 100 pM TGF-β1. After 30 min at 37° C., […] analyzed by immunofluorescent microscopy using antibodies to TβR-I and SARA. […] This is consistent with the previous report that TGF-β enhances TGF-β receptor internalization^16.

[2] = system: PAI-1 expression in Mv1Lu cells; test: TGF-β1-stimulated expression of PAI-1 mRNA (Northern blot / real-time RT-PCR) in Mv1Lu cells; assay type: cell-based
Description: (A-G) Cells were pretreated with vehicle only or with several concentrations (as indicated) of β-CD (A,C), thioridazine (B), TFP (D), chloroquine (E), monensin (F) and MDC (G) at 37° C. for 1 h. Treated cells were then stimulated with 50 pM TGF-β1. After 2 h at 37° C., the mRNAs of PAI-1 and G3PDH (as control) in the cell lysates were analyzed by Northern blot (top) and quantified using a PhosphoImager (bottom) (A,B) or real-time RT-PCR (C to G). The TGF-β-stimulated expression of PAI-1 in cells treated with vehicle only was taken as 100% (A, B) or 1 fold (C to G) of control. […] (H) Cells were pretreated with several concentrations (as indicated) of dynasore at 37° C. for 1 h and then stimulated with 50 pM TGF-β1. After 2 h at 37° C., the mRNA of PAI-1 was quantitated by real-time RT-PCR. The relative level of PAI-1 mRNA in cells treated with TGF-β1 alone was taken as 1 (100%). Experiments were carried out in triplicate. The data shown is representative of 3 independent experiments.
The PAI-1 gene is one of the most studied genes responsive to TGF-β stimulation^4,5. The promotor region of the PAI-gene contains several Smad2/3 binding sites that have been used as the TGF-β responsive elements to enhance the expression of a reported gene^4,5. […] Cells were pretreated with vehicle only and several concentrations of β-CD, thioridazine, TFP, MDC, monensin and chloroquine at 37° C. for 1 h. Cells were then stimulated with 50 pM TGF-β1. After 2 h at 37° C., the relative levels of PAI-1 mRNA were analyzed by quantitative Northern blot analysis (FIGS. 3A and 3B) and real-time RT-PCR (FIG. 3C-3G).

[3] = system: PAI-1 expression in bovine aortic endothelial cells (BAEC cells); test: TGF-β-stimulated expression of PAI-1 in BAEC cells; assay type: cell-based; conditions: dynasore 50 μM; BAEC cells (unpublished results)
Description: (§1) We hypothesize that TGF-β enhancers such as inhibitors of clathrin-dependent endocytosis may ameliorate atherosclerosis caused by cholesterol-induced suppression of TGF-β responsiveness in vascular cells^3,12. To test our hypothesis, we treated hypercholesterolemic ApoE-null mice with dynasore (1 mg/kg body weight) via intraperitoneal administration every two days for 8 weeks. We chose dynasore for two reasons. […] At 50 μM, it enhances TGF-β-stimulated expression of PAI-1 in these cell types by ˜4-5 fold, 2) Dynasore is the only inhibitor tested which alone is capable of stimulating PAI-1 expression. […] The plasma levels of cholesterol in wild-type mice treated with either vehicle only or dynasore were 120±10 and 125±20 mg/dl, respectively.

[4] = system: hypercholesterolemic ApoE-null mice; test: Atherosclerosis in hypercholesterolemic ApoE-null mice (coronary artery histology, TβR-II staining, plasma cholesterol); assay type: in vivo
Description: (§2) Wild-type and ApoE-null mice were treated with vehicle only (a, c) or 1 mg/kg dynasore (b, d) every two days for 8 weeks. The coronary arteries were removed from the animals and subjected to histological analysis by H & E staining (A) and indirect immunofluorescent staining for TβR-II(B). The asterisk (*) indicates the location of the lumen in coronary arteries. The arrow indicates the immunofluorescent staining of TβR-II in the aortic endothelium.
as §1
(§3) However, no TβR-II staining was found in the aortic endothelium and smooth muscle of coronary arteries in ApoE-null mice treated with vehicle only (FIG. 4Bc).

wild-type mice = test: Wild-type mice treated with dynasore (organ pathology, coronary artery histology, TβR-II staining, plasma cholesterol); assay type: in vivo
Description: as §2, §1, §3

[5] = dynasore 1 mg/kg every two days for 8 weeks, indirect immunofluorescent staining

O=C(N/N=C/c1ccc(O)c(O)c1)c1cc2ccccc2cc1O [dynasore]
co-localization and accumulation of TβR-I and SARA at the plasma membrane, co-treatment with TGF-β1 [1]: promoted co-localization and accumulation of TβR-I and SARA at the plasma membrane | stimulation of PAI-1 expression by dynasore alone ([2]; dynasore 25 μM without TGF-β1, real-time RT-PCR): to the same extent as with 50 pM TGF-β1 alone | enhancement of TGF-β-stimulated expression of PAI-1 ([2]; dynasore 50 μM): 4-5 fold | enhancement of TGF-β1-stimulated PAI-1 expression ([2]; dynasore 50 μM, 50 pM TGF-β1 for 2 h, real-time RT-PCR): ~5 fold | enhancement of TGF-β-stimulated expression of PAI-1 [3]: 4-5 fold | TβR-II staining in the aortic endothelium of coronary arteries [4, 5]: appeared to restore the TβR-II staining | TβR-II staining in the smooth muscle near the endothelium [4, 5]: slight staining of TβR-II was found | effect on atherosclerosis ([4]; dynasore 1 mg/kg intraperitoneal every two days for 8 weeks): effectively ameliorates atherosclerosis | macrophages or foam cells in the endothelium of the coronary arteries ([4]; dynasore 1 mg/kg intraperitoneal every two days for 8 weeks, H & E staining): very few macrophages or foam cells were found | morphology of the coronary arteries (wild-type mice; dynasore 1 mg/kg every two days for 8 weeks, H & E staining): normal morphology | macroscopic or microscopic abnormality in the liver, heart, lung and kidney (wild-type mice; dynasore 1 mg/kg intraperitoneal every 2 days for 8 weeks): no apparent macroscopic or microscopic abnormality has been detected
